Experimental data from patent EP2589385A1, “TRIPLE COMBINATION FOR THE TREATMENT OF CANCER” (Fundación Centro Nacional de Investigaciones Oncológicas, priority 2011, dated 2013).

Columns and labels:
[1] = tested on: human primary pancreatic cancer cells (A6L and 185); assay: Viability of adherent cells after inhibitor pretreatment; format: cell-based; conditions: pretreatment with inhibitor
[2] = tested on: pancreatic cancer cells (185 and A6L); assay: Invasion assay, modified Boyden chamber with Matrigel; format: cell-based, human; conditions: for effects of Nodal and Activin on cell invasiveness: cells pretreated with inhibitor at 20µM
Description: Invasion assays were performed using modified Boyden chambers filled with Matrigel™ (BioCoat®, BD Biosciences, Heidelberg, Germany). […] 500µl of cell suspensions containing 5x10^4 pre-treated or untreated cells were added to the Matrigel™ coated inserts, and 750µl of serum-free medium with or without 300ng/ml recombinant human Nodal was added to the lower chamber. The assay chambers were incubated for 22h at 37°C. Invaded cells were fixed in 4% PFA and stained with DAPI. The ratios of cells in the lower chamber versus total seeded cells (in per cent) were calculated.

A6L and 185 cells = assay: Sphere formation assay (CSC self-renewal); format: cell-based, human; conditions: for sphere formation / sphere forming capacity: 10, 20, and 40µM, 7 days, vs control
Description: (§1) Human pancreatic tumours were obtained with written informed consent from all patients. For in vitro studies, tissue fragments were minced, enzymatically digested with collagenase (Stem Cell Technologies, Vancouver, BC) for 90 min at 37°C (Mueller TM et al. Gastroenterology 2009 137(3):1102-13) and after centrifugation for 5 min at 1200 rpm the pellets were resuspended and cultured in RPMI, 10%FBS and 50units/ml pen/strep. Pancreatic cancer spheres were generated by placing the pancreatic cancer cell in suspension (20,000 cells/ml) in serum-free DMEM/F12 media, supplemented with B27 (1:50, Invitrogen), 20ng/ml bFGF and 50units/ml pen/strep. After 7 days of incubation, spheres were typically >75µm big with ~97% CD133high. For serial passaging, 7-day-old spheres were harvested using 40µm cell strainers, dissociated to single cells with trypsin, and then re-grown for 7 days. Cultures were kept no longer than 4 weeks after recovery from frozen stocks.

CD133+ population = assay: CD133 content by flow cytometry after in vitro treatment; format: cell-based, human
Description: To identify pancreatic CSC, the following antibodies were used: anti-CD133/1-APC or PE; CD133/2-APC (all Miltenyi, Bergisch-Gladbach, Germany) was used for purity testing after MACSorting; EpCAM-FITC, CD44-PE or appropriate isotype-matched control antibodies (Beckton Dickinson, Heidelberg, Germany). Propidium iodide or 7-AAD was used for exclusion of dead cells (eBiosciences, San Diego, CA). Samples were analysed by flow cytometry using a FACS Canto II (BD) and data were analysed with FlowJo 9.2 software (Ashland, Oregon).

CD133+ cells = assay: Cell cycle analysis with BrdU flow kit; format: cell-based, human
phosphorylation of Smad2 = assay: Smad2 phosphorylation assay (western blot); format: cell-based, human; conditions: simultaneous treatment with inhibitor and rNodal or rActivin
Excerpt: PVDF membranes containing electrophoretically separated proteins from human primary pancreatic cancer cells and spheres were probed with mouse antibodies against Nodal (ab556676; Abcam, Inc.), Smad2 (3103; Cell Signalling Technology, Inc.), GAPDH (ab8245-100; Abcam, Inc.), Smad4 (sc-7966; Santa Cruz Biotechnology, Inc.) and rabbit antibody against pSmad2 (3108; Cell Signalling Technology, Inc.), treated with peroxidase-conjugated goat anti-mouse or anti-rabbit Ig secondary antibody (Sigma), and then visualized by enhanced chemoluminescence (Amersham, Inc.). Human primary pancreatic cancer cells were serum-starved for 3h in RPMI (GIBCO). Following starvation, the cells were incubated for 30 min at 37°C with recombinant human Nodal or Activin proteins (300 ng/ml and 100 ng/ml, respectively; R&D) either alone or in the presence of the SB431542 (10 µM, Sigma). Anti-Smad2 and anti-phospho-Smad2 (Ser465/467) Antibodies (Cell Signalling Technology) were used, following the manufacturer's instructions.

[3] = tested on: cells isolated from harvested tumours; assay: Sphere formation capacity of cells isolated from treated tumours on day 100; format: cell-based, human; conditions: cells from tumours harvested on day 100 (Fig. 7G, left panel)
Description: as §1

L3.6pl cells = assay: In vivo treatment of established orthotopic pancreatic cancer cell line xenografts; parameters: species or system female NMRI nu/nu mice
Description: (§2) Single-cell suspensions were either orthotopically implanted into the pancreas of female NMRI nu/nu mice (Janvier, Le Genest-Saint-Isle, France) or 2mm3 pieces of primary, in vivo expanded pancreatic cancer tissue were subcutaneously implanted, and mice were randomized to the respective treatment groups. Size and weight of the pancreatic tumours were monitored. Gemcitabine was administered twice a week (125 mg/kg i.p.). SB431542 was used at 25 mg/kg and CUR199691 at 100 mg/kg, both by oral gavages twice daily for three weeks.
Mice were analysed with a 3-Tesla MRI system (Magnetom Tim Trio, Siemens, Erlangen, Germany) using a dedicated small animal coil and T2-weighted scanning.

[4] = tested on: primary human pancreatic cancer tissue xenografts; assay: In vivo treatment of primary human pancreatic cancer tissue xenografts; parameters: species or system female NMRI nu/nu mice
Description: as §2

[5] = tested on: xenotransplanted human pancreatic cancer; conditions: in vivo therapy with gemcitabine; cited from earlier work
CD133+ CSC = conditions: treatment with gemcitabine; cited from earlier work

Cc1cccc(-c2nn3c(c2-c2ccnc4ccc(C(N)=O)cc24)CCC3)n1 [LY2157299]
viability of adherent cells [1]: did not affect the viability of adherent cells
enhanced invasiveness of CSC treated with rTGF-β ([2]; Alk5 inhibitor with rTGF-β): abrogated the enhanced invasiveness of CSC treated with rTGF-β
sphere formation / sphere forming capacity (A6L and 185 cells): did not display any effects on sphere forming capacity
sphere forming capacity (A6L and 185 cells; summary statement of Example 8 (Fig. 4A)): neither the Alk5 inhibitor LY2157299 nor the TGF-β receptor II neutralizing antibodies resulted in significant changes of sphere forming capacity

NC(=O)c1ccc(-c2nc(-c3ccc4c(c3)OCO4)c(-c3ccccn3)[nH]2)cc1 [SB431542]
viability of adherent cells [1]: did not affect the viability of adherent cells
time until the CD133+ population replenished (CD133+ population; after four days of treatment with SB431542 alone): ≤ 48 h
CD133 content / CD133+ population (CD133+ population; four days of treatment): marked decrease in CD133 content
percentage of CD133+ cells in S phase (CD133+ cells): did not affect the percentage of CD133+ cells in S phase
percentage of apoptotic CD133+ cells (CD133+ cells; result in words): nor did it increase the percentage of apoptotic CD133+ cells
effects of Nodal and Activin on cell invasiveness [2]: significantly attenuated the effects of Nodal and Activin on cell invasiveness
cell invasion of sphere-derived cells ([2]; conditioned medium from PSC cells in the lower compartment (Fig. 17B)): Cell invasion was abrogated
reversal of rNodal/rActivin-enhanced phosphorylation of Smad2 (phosphorylation of Smad2): almost reversed this enhanced phosphorylation of Smad2
sphere formation / sphere forming capacity (A6L and 185 cells): dose-dependently (10, 20, and 40µM) blocked sphere formation as compared to control

Cc1cccc(-c2[nH]c(C(C)(C)C)nc2-c2ccc3c(c2)OCO3)n1 [SB505124]
effects of Nodal and Activin on cell invasiveness [2]: significantly attenuated the effects of Nodal and Activin on cell invasiveness

Nc1ccn([C@@H]2O[C@H](CO)[C@@H](O)C2(F)F)c(=O)n1 [gemcitabine, 4-amino-l-[3,3-difluoro-4-hydroxy-5-(hydroxymethyl)tetrahydrofuran-2-yl]-1 H-pyrimidin-2-one]
sphere forming capacity [3]: strong sphere forming capacity
survival / long-term survival (L3.6pl cells; follow-up until day 100 (Fig. 7C)): significantly prolonged survival
tumour take rate (L3.6pl cells; orthotopic cell line xenografts): 100%
median survival (L3.6pl cells; orthotopic cell line xenografts, treatment started one week after injection, control 32 days): 54 days
histological differentiation of remaining tumours ([4]; day 100): poor differentiation
tumour growth after gemcitabine withdrawal ([4]; long-term follow-up): reaccelerated in growth
CD133+ cells in the residual tumour tissue [5]: significant enrichment of CD133+ cells in the residual tumour tissue
effect on CD133+ CSC (CD133+ CSC): no detectable effect
